# According to publication PMC9176062, “Phase Ib study of combinations of avadomide (CC‐122), CC‐223, CC‐292, and rituximab in patients with relapsed/refractory diffuse large B‐cell lymphoma” (EJHaem, 2022):
# Key:
# [1] = system: DOHH2 cells; assay: DOHH2 xenograft model; type: in vivo; conditions: DLBCL xenograft model (DOHH2, SCID mice); avadomide oral once daily, rituximab 1 mg/kg once weekly
# Method: Female severe combined immunodeficiency (SCID) mice (CB17/Icr-Prkdcscid, Charles River) were 8 weeks old, with body weights ranging from 15.0 g to 23.2 g on day 1 of these studies. Each SCID mouse was injected subcutaneously in the right flank with 5 × 10^6 DOHH2 cells (0.2-mL cell suspension). Tumors were calipered in 2 dimensions to monitor growth as their mean volume approached 100 to 150 mm^3. Fourteen days after tumor cell implantation, mice were sorted into treatment groups of 10 mice per group. Tumors were calipered twice weekly during the study. Avadomide was suspended in 0.5% carboxymethyl cellulose (0.25% Tween-80 in deionized water). Vehicle control and avadomide were each administered via oral gavage once daily; rituximab (1 mg/kg) was administered once weekly for the duration of the study.
# FIGURE S1 Change in the percentage of apoptotic cells over time (A) and in vivo tumor growth response after combination treatment with avadomide and rituximab (B). Natural killer cell activity against DOHH or RL FL cell lines determined by flow cytometry is shown (A). Female CB17 severe combined immunodeficiency mice implanted subcutaneously with DOHH2 cells were administered vehicle and avadomide once daily and rituximab given 1 mg/kg once weekly (B). SEM, standard error of the mean; TGI, tumor growth inhibition. mm^3
# [2] = system: patients with R/R DLBCL; assay: Treatment duration, modification, and exposure; type: in vivo; conditions: human, in vivo
# Method: CC‐122 hydrochloride, referred to here as CC‐122, as an active pharmaceutical ingredient in capsule (AIC) formulation, was administered orally once daily (QD). An alternate intermittent schedule of CC‐122 QD for five of every seven consecutive days (5/7), which improved tolerability and reduced the frequency and severity of neutropenia in a study of CC‐122 monotherapy in DLBCL, was also explored. CC‐292 was administered orally twice daily (BID) and CC‐223 was administered orally QD. Rituximab was administered on day 8 of cycle 1, day 1 of cycles 2–6, and day 1 of every third cycle thereafter. Patients in arm A received CC‐122 and CC‐223 with or without rituximab (starting at CC‐122 2 mg QD and CC‐223 20 mg QD), patients in arm B received CC‐122 plus CC‐292 with or without rituximab (starting at CC‐122 2 mg QD and CC‐292 500 mg BID), patients in arm C were treated with CC‐223 and CC‐292 (starting at CC‐223 20 mg QD and CC‐292 500 mg BID), and those in arm D received CC‐122 plus rituximab (starting at CC‐122 2 mg QD). In arm D, a CC‐122 3 mg formulated capsule was introduced with the same strength as CC‐122 3 mg AIC. Each dose level was cleared before the next was started. If unacceptable toxicity occurred at the initial dose level, dose reductions for CC‐122 (1.5 mg QD and 1 mg QD) and CC‐223 (15 mg QD) were allowed; no starting dose reductions for CC‐292 were planned. For arm A, the Safety Review Committee (SRC) determined which of the two drugs in the doublet to reduce. For arms B and D, the CC‐122 dose was reduced and for arm C, the CC‐223 dose was reduced. Assignment of patients to study arms was at the discretion of the investigator and based on slot availability per the study design.
# Patients who experienced dose‐limiting toxicity (DLT) after receiving ≥1 dose of study treatment or those who received ≥80% of planned doses of CC‐122, CC‐223, CC‐292, and rituximab during cycle 1 without experiencing a DLT were considered DLT‐evaluable. If zero out of ≥3 or ≤1 out of six evaluable patients in a cohort experienced a DLT during cycle 1 in parallel dose cohorts, then dose escalation could occur. DLTs are defined in the Supplementary Materials; individual investigators performed response assessments and determined DLTs. The NTD was defined as the dose level at which ≥2 of six evaluable patients in a cohort experienced a DLT during cycle 1. […] During cycle 1, any adverse event (AE) that led to dose reduction was considered a DLT. Patients could resume CC‐122 at a reduced dose only if they recovered to grade ≤1 within 14 days of dose interruption; two dose reductions were allowed before the patient was withdrawn from the study. Dose reductions were permitted for CC‐122, CC‐223, and CC‐292; no dose reductions were allowed for rituximab, but treatment could be discontinued at the discretion of the investigator. […] For arms A, B, and D, CC‐122 dosing was modified to the intermittent 5/7‐day schedule based on SRC review and escalated until the MTD/RP2D was established. Treatment was given until disease progression, unacceptable toxicity, or patient/physician decision to withdraw consent.
# ^aTreatment duration defined as date of last derived dose – date of first dose + 1.
# ^bDefined as the ratio of actual dose received to planned dose over the treatment period.
# [3] = system: Aiolos; assay: Blood pharmacodynamic biomarker Aiolos in CD3+ T cells and CD19+ B cells; type: in vivo, human; conditions: arm B (with CC‐292), 3 h post‐dose; for median decline in Aiolos levels: 1 mg of CC‐122; for decline in Aiolos levels: 2‐mg CC‐122 group
# Method: AEs were assessed according to the National Cancer Institute Common Terminology Criteria for AEs, version 4.03, up to 28 days after the last treatment. Blood samples for PK analysis were collected on days 15 to 28, predose, and at 1.5 and 3 h post‐dose on days 1 and 15 of cycle 1 for all dose cohorts. Additional blood samples were collected on day 15 from patients in dose level 2 of arm C to examine CC‐223 and CC‐292 steady‐state PK. Pharmacodynamic biomarkers of each novel agent were explored at baseline and cycle 1, day 1 (pre‐dose, and at 1.5 and 3 h) and cycle 1, day 15 (pre‐dose, and at 1.5 and 3 h), including cereblon modulation substrates in B and T cells in patients treated with CC‐122 and mTOR signaling pathway biomarkers (e.g., p4EBP1 and pAKT) in patients treated with CC‐223. Tumor assessments were performed at screening and at the end of even‐numbered cycles through cycle 6, then every three cycles through cycle 12, and every 6 months thereafter. Responses were assessed by the investigator per International Working Group 2007 criteria.
# Safety analyses were performed on all patients who received ≥1 dose of study treatment (safety population). The PK population comprised all patients who took ≥1 dose of study treatment and had ≥1 measured drug concentration. […] The biomarker‐evaluable population comprised all patients who took ≥1 dose of study treatment and had ≥1 pharmacodynamic assessment. Safety and efficacy analyses were based on the safety population except where noted (PK and biomarkers). PK parameters were calculated using actual times relative to the most recent administration. The median duration of response (DOR) and median PFS were calculated per the Kaplan‐Meier method.
# Per cent change from baseline in Aiolos in CD3+ T cells (A) and CD19+ B cells (B) and in p4EBP1 (C) and pAKT (D) at 3 h post‐dose on day 1 of cycle 1 (biomarker‐evaluable population). The change in Aiolos expression in CD3+ T cells and CD19+ B cells was calculated within each avadomide‐ and CC‐223‐containing arm. *p ≤ 0.05 versus baseline; **p ≤ 0.01 versus baseline; ***p ≤ 0.001 versus baseline; DL, dose level; MEFL, molecules of equivalent fluorescence label; NS, not significant
# [4] = system: DOHH2 and RL cells; assay: Antibody-dependent, cell-mediated cytotoxicity (NK cells vs tumor cells, flow cytometry); type: cell-based; conditions: two DLBCL cell lines; NK cells pretreated with avadomide 1–100 nM, rituximab 1 μg/mL
# Method: Purified natural killer (NK) cells from patient peripheral blood mononuclear cell samples were treated with 10 ng/mL rh-IL-2 (R&D) alone or with avadomide (1–100 nM) for 24 hours at 37°C. Cells (1 × 10^6 cells/mL) from 2 FL cell lines, DOHH2 and RL, were stained with CellTrace carboxyfluorescein succinimidyl ester (CFSE; Thermo Fisher Scientific) (200 nmol/L) for 5 minutes at room temperature, then treated with dimethyl sulfoxide (DMSO; vehicle) or rituximab (1 μg/mL) for 1 hour prior to coculture. Target tumor DOHH2 and RL cells (2 × 10^4 cells) were added to DMSO or avadomide pretreated effector NK cells at a 1:5 ratio (target to effector cells) and were incubated for 4 hours at 37°C. Cells were stained with Annexin V-PE and TO-PRO-3 (Thermo Fisher Scientific) according to the manufacturer’s instructions. The percentage of tumor apoptosis was determined by sequential gating for CFSE-positive and double-positive (Annexin V-PE and TO-PRO-3–positive) cells.
# FIGURE S1 Change in the percentage of apoptotic cells over time (A) and in vivo tumor growth response after combination treatment with avadomide and rituximab (B). Natural killer cell activity against DOHH or RL FL cell lines determined by flow cytometry is shown (A). […]
smiles,measurement,setting,value
"Cc1nc2cccc(N)c2c(=O)n1C1CCC(=O)NC1=O (stereo not drawn) [CC‐122, Avadomide]",tumor growth inhibition (TGI),[1],28%
same,patients with dose reductions of the drug,[2],20.5%
same,≥1 dose interruption,[2],59 (67.0) n (%)
same,≥1 dose interruption: Adverse event,[2],49 (55.7) n (%)
same,≥1 dose interruption: Other,[2],35 (39.8) n (%)
same,≥1 dose interruption: Per protocol,[2],6 (6.8) n (%)
same,≥1 dose reduction,[2],18 (20.5) n (%)
same,≥1 dose reduction: Adverse event,[2],11 (12.5) n (%)
same,≥1 dose reduction: Other,[2],5 (5.7) n (%)
same,≥1 dose reduction: Per protocol,[2],1 (1.1) n (%)
same,median decline in Aiolos levels,[3]; CD3+ T cells,approximately 20%
same,decline in Aiolos levels,[3]; CD3+ T cells,approximately 40%
same,median decline in Aiolos levels,[3]; CD19+ B cells,~5%
same,decline in Aiolos levels,[3]; CD19+ B cells,~32%
same,rituximab‐mediated antibody‐dependent cell‐mediated cytotoxicity,[4],enhancement
